# Reference: the supplement of paper PMC10307832
# Key:
# Assay in all cases: relative viability (nuclei count vs DMSO), 5 days (fraction); higher = more cells survive
# CAL-12T = test system: CAL-12T
# Procedure, shortened: (§1)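 Lung cancer cell lines were pin-tool dosed in 1536-well plates on the day after seeding, with either a lone drug or a fixed anchor-drug dose plus five library-drug doses (not always all listed) in √10 steps. Nuclei were counted on 4× images after 5 days. Relative viability is the ratio of treated-well to vehicle-well nuclei counts, with each value a median of duplicate plates.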
# HOP-62 = test system: HOP-62
# Procedure, shortened: as §1
# NCI-H322M = test system: NCI-H322M
# Procedure, shortened: as §1
# ChaGo-K-1 = test system: ChaGo-K-1
# Procedure, shortened: as §1
# ABC-1 = test system: ABC-1
# Procedure, shortened: as §1
# NCI-H441 = test system: NCI-H441
# Procedure, shortened: as §1
# NCI-H358 = test system: NCI-H358
# Procedure, shortened: as §1
# EMC-BAC-2 = test system: EMC-BAC-2
# Procedure, shortened: as §1
# LXF-289 = test system: LXF-289
# Procedure, shortened: as §1
# NCI-H1755 = test system: NCI-H1755
# Procedure, shortened: as §1
# COR-L 105 = test system: COR-L 105
# Procedure, shortened: as §1
# NCI-H1975 = test system: NCI-H1975
# Procedure, shortened: as §1
# NCI-H2126 = test system: NCI-H2126
# Procedure, shortened: as §1
# NCI-H3122 = test system: NCI-H3122
# Procedure, shortened: as §1
# NCI-H1915 = test system: NCI-H1915
# Procedure, shortened: as §1
# NCI-H1666 = test system: NCI-H1666
# Procedure, shortened: as §1
# HCC-78 = test system: HCC-78
# Procedure, shortened: as §1
# NCI-H1993 = test system: NCI-H1993
# Procedure, shortened: as §1
# NCI-H2085 = test system: NCI-H2085
# Procedure, shortened: as §1
# NCI-H2023 = test system: NCI-H2023
# Procedure, shortened: as §1
# NCI-H522 = test system: NCI-H522
# Procedure, shortened: as §1
# EPLC-272H = test system: EPLC-272H
# Procedure, shortened: as §1
# HCC-15 = test system: HCC-15
# Procedure, shortened: as §1
# UMC-11 = test system: UMC-11
# Procedure, shortened: as §1
smiles,measurement,setting,value
COc1cc(N2CCC(C(N)=O)CC2)ccc1Nc1nc(N)c(Cl)c(Nc2ccccc2S(=O)(=O)C(C)C)n1 [HG-5-88-01] + COc1cccc2cc(-c3nc([C@H]4CC[C@H](C(=O)O)CC4)n4ncnc(N)c34)[nH]c12 [OSI-027] (partner 0.5 µM),relative viability,CAL-12T; first compound 0.04 µM,0.491
same,relative viability,CAL-12T; first compound 0.1265 µM,0.672
same,relative viability,CAL-12T; first compound 0.4 µM,0.612
same,relative viability,CAL-12T; first compound 1.265 µM,0.208
same,relative viability,CAL-12T; first compound 4 µM,0.173
same,relative viability,HOP-62; first compound 0.04 µM,0.726
same,relative viability,HOP-62; first compound 0.1265 µM,0.949
same,relative viability,HOP-62; first compound 0.4 µM,0.828
same,relative viability,HOP-62; first compound 1.265 µM,0.856
same,relative viability,HOP-62; first compound 4 µM,0.737
same,relative viability,NCI-H322M; first compound 0.04 µM,0.501
same,relative viability,NCI-H322M; first compound 0.1265 µM,0.481
same,relative viability,NCI-H322M; first compound 0.4 µM,0.448
same,relative viability,NCI-H322M; first compound 4 µM,0.293
same,relative viability,ChaGo-K-1; first compound 0.04 µM,0.627
same,relative viability,ChaGo-K-1; first compound 0.1265 µM,0.649
same,relative viability,ChaGo-K-1; first compound 0.4 µM,0.645
same,relative viability,ChaGo-K-1; first compound 1.265 µM,0.605
same,relative viability,ChaGo-K-1; first compound 4 µM,0.47
same,relative viability,ABC-1; first compound 0.04 µM,0.468
same,relative viability,ABC-1; first compound 0.1265 µM,0.428
same,relative viability,ABC-1; first compound 0.4 µM,0.399
same,relative viability,ABC-1; first compound 1.265 µM,0.348
same,relative viability,ABC-1; first compound 4 µM,0.293
same,relative viability,NCI-H441; first compound 0.04 µM,0.787
same,relative viability,NCI-H441; first compound 0.1265 µM,0.77
same,relative viability,NCI-H441; first compound 0.4 µM,0.848
same,relative viability,NCI-H441; first compound 1.265 µM,0.437
same,relative viability,NCI-H441; first compound 4 µM,0.421
same,relative viability,NCI-H358; first compound 0.04 µM,0.692
same,relative viability,NCI-H358; first compound 0.1265 µM,0.673
same,relative viability,NCI-H358; first compound 0.4 µM,0.588
same,relative viability,NCI-H358; first compound 1.265 µM,0.234
same,relative viability,NCI-H358; first compound 4 µM,0.133
same,relative viability,EMC-BAC-2; first compound 0.04 µM,0.361
same,relative viability,EMC-BAC-2; first compound 0.1265 µM,0.371
same,relative viability,EMC-BAC-2; first compound 0.4 µM,0.326
same,relative viability,EMC-BAC-2; first compound 1.265 µM,0.307
same,relative viability,EMC-BAC-2; first compound 4 µM,0.251
same,relative viability,LXF-289; first compound 0.04 µM,0.755
same,relative viability,LXF-289; first compound 0.1265 µM,0.815
same,relative viability,LXF-289; first compound 0.4 µM,0.77
same,relative viability,LXF-289; first compound 1.265 µM,0.635
same,relative viability,LXF-289; first compound 4 µM,0.337
same,relative viability,NCI-H1755; first compound 0.04 µM,0.722
same,relative viability,NCI-H1755; first compound 0.1265 µM,0.731
same,relative viability,NCI-H1755; first compound 0.4 µM,0.677
same,relative viability,NCI-H1755; first compound 1.265 µM,0.686
same,relative viability,NCI-H1755; first compound 4 µM,0.434
same,relative viability,COR-L 105; first compound 0.04 µM,0.616
same,relative viability,COR-L 105; first compound 0.1265 µM,0.776
same,relative viability,COR-L 105; first compound 0.4 µM,0.531
same,relative viability,COR-L 105; first compound 1.265 µM,0.371
same,relative viability,COR-L 105; first compound 4 µM,0.316
same,relative viability,NCI-H1975; first compound 0.04 µM,0.711
same,relative viability,NCI-H1975; first compound 0.1265 µM,0.803
same,relative viability,NCI-H1975; first compound 0.4 µM,0.631
same,relative viability,NCI-H1975; first compound 1.265 µM,0.461
same,relative viability,NCI-H1975; first compound 4 µM,0.19
same,relative viability,NCI-H2126; first compound 0.1265 µM,0.688
same,relative viability,NCI-H2126; first compound 0.4 µM,0.71
same,relative viability,NCI-H2126; first compound 1.265 µM,0.518
same,relative viability,NCI-H2126; first compound 4 µM,0.432
same,relative viability,NCI-H3122; first compound 0.04 µM,0.226
same,relative viability,NCI-H3122; first compound 0.1265 µM,0.213
same,relative viability,NCI-H3122; first compound 0.4 µM,0.114
same,relative viability,NCI-H3122; first compound 1.265 µM,0.149
same,relative viability,NCI-H3122; first compound 4 µM,0.129
same,relative viability,NCI-H1915; first compound 0.04 µM,0.63
same,relative viability,NCI-H1915; first compound 0.1265 µM,0.625
same,relative viability,NCI-H1915; first compound 0.4 µM,0.69
same,relative viability,NCI-H1915; first compound 1.265 µM,0.697
same,relative viability,NCI-H1915; first compound 4 µM,0.527
same,relative viability,NCI-H1666; first compound 0.04 µM,0.866
same,relative viability,NCI-H1666; first compound 0.1265 µM,0.859
same,relative viability,NCI-H1666; first compound 0.4 µM,0.692
same,relative viability,NCI-H1666; first compound 1.265 µM,0.605
same,relative viability,NCI-H1666; first compound 4 µM,0.532
same,relative viability,HCC-78; first compound 0.04 µM,0.359
same,relative viability,HCC-78; first compound 0.1265 µM,0.293
same,relative viability,HCC-78; first compound 0.4 µM,0.349
same,relative viability,HCC-78; first compound 1.265 µM,0.27
same,relative viability,HCC-78; first compound 4 µM,0.301
same,relative viability,NCI-H1993; first compound 0.04 µM,0.536
same,relative viability,NCI-H1993; first compound 0.1265 µM,0.504
same,relative viability,NCI-H1993; first compound 0.4 µM,0.52
same,relative viability,NCI-H1993; first compound 1.265 µM,0.532
same,relative viability,NCI-H1993; first compound 4 µM,0.536
same,relative viability,NCI-H2085; first compound 0.04 µM,0.713
same,relative viability,NCI-H2085; first compound 0.1265 µM,0.872
same,relative viability,NCI-H2085; first compound 0.4 µM,0.615
same,relative viability,NCI-H2085; first compound 1.265 µM,0.384
same,relative viability,NCI-H2085; first compound 4 µM,0.321
same,relative viability,NCI-H2023; first compound 0.04 µM,0.433
same,relative viability,NCI-H2023; first compound 0.1265 µM,0.407
same,relative viability,NCI-H2023; first compound 0.4 µM,0.205
same,relative viability,NCI-H2023; first compound 1.265 µM,0.109
same,relative viability,NCI-H2023; first compound 4 µM,0.127
same,relative viability,NCI-H522; first compound 0.04 µM,0.641
same,relative viability,NCI-H522; first compound 0.1265 µM,0.634
same,relative viability,NCI-H522; first compound 0.4 µM,0.66
same,relative viability,NCI-H522; first compound 1.265 µM,0.579
same,relative viability,NCI-H522; first compound 4 µM,0.61
same,relative viability,EPLC-272H; first compound 0.04 µM,0.31
same,relative viability,EPLC-272H; first compound 0.1265 µM,0.278
same,relative viability,EPLC-272H; first compound 0.4 µM,0.294
same,relative viability,EPLC-272H; first compound 1.265 µM,0.242
same,relative viability,EPLC-272H; first compound 4 µM,0.0931
same,relative viability,HCC-15; first compound 0.04 µM,0.683
same,relative viability,HCC-15; first compound 0.1265 µM,0.8
same,relative viability,HCC-15; first compound 0.4 µM,0.539
same,relative viability,HCC-15; first compound 1.265 µM,0.547
same,relative viability,HCC-15; first compound 4 µM,0.326
same,relative viability,UMC-11; first compound 0.04 µM,0.347
same,relative viability,UMC-11; first compound 0.1265 µM,0.521
same,relative viability,UMC-11; first compound 1.265 µM,0.464
same,relative viability,UMC-11; first compound 4 µM,0.334
